Tests used:
Type in all cases: in vivo
[1] = system: mice; experiment: Anti-reserpine activity in mice (reserpine hypothermia); settings: reserpine 2.5 mg.kg^-1 i.p. 4 h before
Protocol: Anti-reserpine activity in mice
At time 0, the mice receive reserpine (2.5 mg.kg^-1) by intraperitoneal administration.
After 4 hours, when the hypothermia is significant (30 to 31°C.), the substance to be studied is administered intraperitoneally or orally. The rectal temperature is measured, using a probe, carrying a thermoelectric couple, inserted to a constant depth, every 30 minutes for 2 hours.

[2] = system: mice; experiment: Anti-apomorphine activity in mice (hypothermia caused by apomorphine)
[3] = system: mice; experiment: Interaction with barbital sodium (sleep induced by barbital sodium in mice); settings: barbital sodium 180 mg.kg^-1 i.p.; 2 mg/kg intraperitoneal
Protocol: Interaction with barbital sodium
At time 0, the mice receive, by intraperitoneal or oral administration, distilled water or the medicament according to the invention. After 30 minutes, they receive barbital sodium (180 mg.kg^-1) by intraperitoneal administration.

In the case of CC1CC(c2ccc(Cl)cc2)C(c2ccccc2)C(=O)O1 (stereo not drawn) [Example I, trans-4-(4'-chlorophenyl)-6-methyl-3-phenyl-3,4,5,6-tetrahydropyrone-2], the “Rectal temperatures °C. ± SD” value ([1]; Table IIa, 4 mg/kg oral, 30 min) was 30.6 ± 0.39 °C, the “Rectal temperatures °C. ± SD” value ([1]; Table IIa, 4 mg/kg oral, 60 min) was 30.6 ± 0.45 °C and the “Rectal temperatures °C. ± SD” value ([1]; Table IIa, 4 mg/kg oral, 90 min) was 30.7 ± 0.59 °C. For the same compound, the “Rectal temperatures °C. ± SD” value ([1]; Table IIa, 4 mg/kg oral, 120 min) was 30.4 ± 0.67 °C, the “Rectal temperatures °C. ± SD” value ([1]; Table IIa, 8 mg/kg oral, 30 min) was 31.1 ± 0.36 °C and the “Rectal temperatures °C. ± SD” value ([1]; Table IIa, 8 mg/kg oral, 60 min) was 31.4 ± 0.56 °C. The “Rectal temperatures °C. ± SD” value ([1]; Table IIa, 8 mg/kg oral, 90 min) was 31.5 ± 0.57 °C, the “Rectal temperatures °C. ± SD” value ([1]; Table IIa, 8 mg/kg oral, 120 min) was 31.3 ± 0.56 °C and the “Rectal temperatures °C. ± SD” value ([1]; Table IIa, 16 mg/kg oral, 30 min) was 31.4 ± 0.41 °C. For the same compound, the “Rectal temperatures °C. ± SD” value ([1]; Table IIa, 16 mg/kg oral, 60 min) was 32.6 ± 0.56 °C, the “Rectal temperatures °C. ± SD” value ([1]; Table IIa, 16 mg/kg oral, 90 min) was 32.8 ± 0.53 °C and the “Rectal temperatures °C. ± SD” value ([1]; Table IIa, 16 mg/kg oral, 120 min) was 32.8 ± 0.45 °C. The “Rectal temperatures °C. ± SD” value ([1]; Table IIa, 32 mg/kg oral, 30 min) was 31.4 ± 0.31 °C, the “Rectal temperatures °C. ± SD” value ([1]; Table IIa, 32 mg/kg oral, 60 min) was 32.6 ± 0.44 °C and the “Rectal temperatures °C. ± SD” value ([1]; Table IIa, 32 mg/kg oral, 90 min) was 32.9 ± 0.41 °C. The “Rectal temperatures °C. ± SD” value ([1]; Table IIa, 32 mg/kg oral, 120 min) was 32.8 ± 0.38 °C, the “Rectal temperatures °C. ± SD” value ([1]; Table IIa, 64 mg/kg oral, 30 min) was 33.8 ± 0.58 °C and the “Rectal temperatures °C. ± SD” value ([1]; Table IIa, 64 mg/kg oral, 60 min) was 34.5 ± 0.33 °C. The “Rectal temperatures °C. ± SD” value ([1]; Table IIa, 64 mg/kg oral, 90 min) was 34.4 ± 0.39 °C, the “Rectal temperatures °C. ± SD” value ([1]; Table IIa, 64 mg/kg oral, 120 min) was 34.4 ± 0.35 °C and the “Rectal temperatures °C. ± SD” value ([1]; Table IIa, 128 mg/kg oral, 30 min) was 33.1 ± 0.56 °C. The “Rectal temperatures °C. ± SD” value ([1]; Table IIa, 128 mg/kg oral, 60 min) was 34.1 ± 0.56 °C, the “Rectal temperatures °C. ± SD” value ([1]; Table IIa, 128 mg/kg oral, 90 min) was 34.3 ± 0.58 °C and the “Rectal temperatures °C. ± SD” value ([1]; Table IIa, 128 mg/kg oral, 120 min) was 34.2 ± 0.53 °C. The “Rectal temperatures °C. ± SD” value ([1]; Table IIa, 256 mg/kg oral, 30 min) was 33.5 ± 0.47 °C, the “Rectal temperatures °C. ± SD” value ([1]; Table IIa, 256 mg/kg oral, 60 min) was 35.2 ± 0.15 °C and the “Rectal temperatures °C. ± SD” value ([1]; Table IIa, 256 mg/kg oral, 90 min) was 35.3 ± 0.34 °C. For the same compound, the “Rectal temperatures °C. ± SD” value ([1]; Table IIa, 256 mg/kg oral, 120 min) was 35.1 ± 0.33 °C, the “Rectal temperatures °C. ± SD” value ([1]; 4 mg/kg intraperitoneal, 30 min) was 32.7 ± 0.56 °C and the “Rectal temperatures °C. ± SD” value ([1]; 4 mg/kg intraperitoneal, 60 min) was 33.7 ± 0.47 °C. The “Rectal temperatures °C. ± SD” value ([1]; 4 mg/kg intraperitoneal, 90 min) was 33.1 ± 0.39 °C, the “Rectal temperatures °C. ± SD” value ([1]; 4 mg/kg intraperitoneal, 120 min) was 32.2 ± 0.46 °C and the “Rectal temperatures °C. ± SD” value ([1]; 8 mg/kg intraperitoneal, 30 min) was 33.1 ± 0.32 °C. For the same compound, the “Rectal temperatures °C. ± SD” value ([1]; 8 mg/kg intraperitoneal, 60 min) was 34.1 ± 0.24 °C, the “Rectal temperatures °C. ± SD” value ([1]; 8 mg/kg intraperitoneal, 90 min) was 34.0 ± 0.38 °C and the “Rectal temperatures °C. ± SD” value ([1]; 8 mg/kg intraperitoneal, 120 min) was 33.6 ± 0.49 °C. For the same compound, the “Rectal temperatures °C. ± SD” value ([1]; 16 mg/kg intraperitoneal, 30 min) was 35.3 ± 0.51 °C, the “Rectal temperatures °C. ± SD” value ([1]; 16 mg/kg intraperitoneal, 60 min) was 35.7 ± 0.34 °C and the “Rectal temperatures °C. ± SD” value ([1]; 16 mg/kg intraperitoneal, 90 min) was 35.3 ± 0.37 °C. For the same compound, the “Rectal temperatures °C. ± SD” value ([1]; 16 mg/kg intraperitoneal, 120 min) was 35.0 ± 0.44 °C, the “Rectal temperatures °C. ± SD” value ([1]; 32 mg/kg intraperitoneal, 30 min) was 34.8 ± 0.48 °C and the “Rectal temperatures °C. ± SD” value ([1]; 32 mg/kg intraperitoneal, 60 min) was 36.2 ± 0.38 °C. The “Rectal temperatures °C. ± SD” value ([1]; 32 mg/kg intraperitoneal, 90 min) was 35.6 ± 0.38 °C, the “Rectal temperatures °C. ± SD” value ([1]; 32 mg/kg intraperitoneal, 120 min) was 35.7 ± 0.37 °C and the “Rectal temperatures, results in % inhibition of the hypothermia” value ([2]; 0.5 mg/kg intraperitoneal, apomorphine 1 mg.kg^-1 subcutaneously) was 7%. The “Rectal temperatures, results in % inhibition of the hypothermia” value ([2]; 0.5 mg/kg intraperitoneal, apomorphine 16 mg.kg^-1 subcutaneously) was -5%, the “Rectal temperatures, results in % inhibition of the hypothermia” value ([2]; 2 mg/kg intraperitoneal, apomorphine 1 mg.kg^-1 subcutaneously) was 3% and the “Rectal temperatures, results in % inhibition of the hypothermia” value ([2]; 2 mg/kg intraperitoneal, apomorphine 16 mg.kg^-1 subcutaneously) was 45%. The “Rectal temperatures, results in % inhibition of the hypothermia” value ([2]; 4 mg/kg intraperitoneal, apomorphine 1 mg.kg^-1 subcutaneously) was -13%, the “Rectal temperatures, results in % inhibition of the hypothermia” value ([2]; 4 mg/kg intraperitoneal, apomorphine 16 mg.kg^-1 subcutaneously) was 39% and the “Rectal temperatures, results in % inhibition of the hypothermia” value ([2]; 4 mg/kg oral, apomorphine 1 mg.kg^-1 subcutaneously) was 0%. The “Rectal temperatures, results in % inhibition of the hypothermia” value ([2]; 4 mg/kg oral, apomorphine 16 mg.kg^-1 subcutaneously) was 31%, the “Rectal temperatures, results in % inhibition of the hypothermia” value ([2]; 8 mg/kg oral, apomorphine 1 mg.kg^-1 subcutaneously) was -2% and the “Rectal temperatures, results in % inhibition of the hypothermia” value ([2]; 8 mg/kg oral, apomorphine 16 mg.kg^-1 subcutaneously) was 40%. For the same compound, the “Rectal temperatures, results in % inhibition of the hypothermia” value ([2]; 16 mg/kg intraperitoneal, apomorphine 1 mg.kg^-1 subcutaneously) was 10%, the “Rectal temperatures, results in % inhibition of the hypothermia” value ([2]; 16 mg/kg intraperitoneal, apomorphine 16 mg.kg^-1 subcutaneously) was 51% and the “Rectal temperatures, results in % inhibition of the hypothermia” value ([2]; 16 mg/kg oral, apomorphine 1 mg.kg^-1 subcutaneously) was 0.5%. The “Rectal temperatures, results in % inhibition of the hypothermia” value ([2]; 16 mg/kg oral, apomorphine 16 mg.kg^-1 subcutaneously) was 42%, the “Rectal temperatures, results in % inhibition of the hypothermia” value ([2]; 32 mg/kg oral, apomorphine 1 mg.kg^-1 subcutaneously) was 45% and the “Rectal temperatures, results in % inhibition of the hypothermia” value ([2]; 32 mg/kg oral, apomorphine 16 mg.kg^-1 subcutaneously) was 77%. For the same compound, the “Rectal temperatures, results in % inhibition of the hypothermia” value ([2]; 64 mg/kg oral, apomorphine 1 mg.kg^-1 subcutaneously) was 51%, the “Rectal temperatures, results in % inhibition of the hypothermia” value ([2]; 64 mg/kg oral, apomorphine 16 mg.kg^-1 subcutaneously) was 86% and the “Rectal temperatures, results in % inhibition of the hypothermia” value ([2]; 128 mg/kg oral, apomorphine 1 mg.kg^-1 subcutaneously) was 68%. For the same compound, the “Rectal temperatures, results in % inhibition of the hypothermia” value ([2]; 128 mg/kg oral, apomorphine 16 mg.kg^-1 subcutaneously) was 81%, the “Rectal temperatures, results in % inhibition of the hypothermia” value ([2]; 256 mg/kg oral, apomorphine 1 mg.kg^-1 subcutaneously) was 89% and the “Rectal temperatures, results in % inhibition of the hypothermia” value ([2]; 256 mg/kg oral, apomorphine 16 mg.kg^-1 subcutaneously) was 116%. For the same compound, the “% of mice which have slept” value [3] was 100%, the “Time in minutes for induction of sleep” value [3] was 27 min and the “Time in minutes of sleep” value [3] was 67 ± 16 min.

— patent publication US4287206A, “Halogen derivatives of 8-hydroxycarboxylic acids; the processes for their preparation and medicaments in which they are present” (priority 1978, dated 1981)
